How the values were obtained:
[1] = target: T1, BCR-NTRK1 BaF3 cells (Homo sapiens, UniProt P04629); test: BaF3 BCR-NTRK1 cell proliferation assay (ATPlite); assay type: cell-based; details: read-out: Inhibition of Cell Proliferation IC50, BCR/BaF3 TrkA
T1 construct: fused on or other part: P11274 (Breakpoint cluster region protein)
Procedure, shortened: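 Cells are plated overnight: BaF3 at 10,000/well in G418 medium without WEHI/IL-3, MV-4-11 at 25,000/well in IMDM with 10% FBS. An 8-point 1:3 compound titration (10 μM top) is then added, and plates are incubated 3 days at 37 °C before ATPlite readout and IC50 determination.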

[2] = system: MV-4-11 cells; test: MV-4-11 (leukemia) cell proliferation assay (ATPlite); assay type: cell-based; details: Homo sapiens, MV4-11, read-out: Inhibition of Cell Proliferation IC50, MV-4-11
Procedure: Compounds are assessed in a variety of cell based assays. For example BaF3 cells engineered with any of BCR-FMS, BCR-KIT, BCR-FLT3, BCR-NTRK1, BCR-NTRK2, and BCR-NTRK3, are used in cell proliferation assays to assess inhibitory activity of Fms, Kit, Flt-3, TrkA, TrkB, and TrkC, respectively. An MV-4-11 (leukemia) cell proliferation assay is used to assess inhibitory activity in Flt-3, and SKNSH (human neuroblastoma) cell proliferation assay is used to assess efficacy of Fms/Trk inhibitors. Additional cells may be assayed similarly to assess the efficacy of Fms/Trk inhibitors, such as MiaPaCa (human pancreatic cancer) and Capan-1 (human pancreatic carcinoma) cells. Reagent and assay conditions are as follows: • BaF3 cells: • Maintained in RPMI containing 10% FBS, 1% PenStrep, 1% NEAA, and 1% L-Glutamine, supplemented with 1 mg/mL G418 and 5% WEHI-CM (or recombinant murine IL-3). • Confluent cells are split 1:50 to 1:100 every 3-4 days. • MV-4-11 cells: • Maintained in Iscove's Modified Dulbecco's Medium containing 10% FBS. • Confluent cells are split 1:4 every 3-4 days. • SKNSH cells: RPMI containing 10% FBS. On day 1, cells are counted, then centrifuged in a conical tube for 5 minutes at 1000 rpm. The supernatant is removed and cells are re-suspended as follows: • BaF3: resuspend in growth media +1 mg/mL G418 (without WEHFIL-3) to 2×10^5 cells/mL. • MV-4-11: resuspend in growth media to 5×10^5 cells/mL. • SKNSH: resuspend in growth media to 2×10^4 cells/mL. The cells are plated (50 μL, 150 μL for SKNSH cells) in each well of a 96-well dish (Corning 3610) and incubated at 37° C. in 5% CO2 overnight, cells plated to a final concentration of cells as follows: • BaF3: 10,000 cells per well. • MV-4-11: 25,000 cells per well. • SKNSH: 3,000 cells per well. On day 2, compound at a maximum concentration of 5 mM is serially diluted 1:3 for a total of 8 point titration with DMSO as a control. A 1 μL aliquot of each dilution point is added to 249 μL growth media and 50 μL is added to a well containing cells, providing 10 μM compound for the maximum concentration point. The cells are incubated for 3 days at 37° C. in 5% CO2. For SKNSH cells, a 0.75 μL aliquot of appropriate dilution in DMSO is added to 150 μL of cells. On day 5, ATPlite 1 step Luminescence Assay System (Perkin Elmer #6016739) is brought to room temperature along with the cell cultures. ATPlite is added to each well as follows: • BaF3: 25 μL per well. • MV-4-11: 40 μL per well. • SKNSH: 20 μL per well. The cells are incubated at room temperature for 10 minutes, then luminescence is read on Safire reader. The measured luminescence correlates directly with cell number, such that the reading as a function of compound concentration is used to determine the IC50 value.
It is understood that the results of these assays may vary as assay conditions are varied. Inhibition levels determined under the conditions described herein represent a relative activity for the compounds tested under the specific conditions employed. The cell based assays are likely to show variability due to the complexity of the system and the sensitivity thereof to any changes in the assay conditions. […] Results for compounds that are tested and show substantially no inhibition below the highest tested concentration are represented as “-” in the tables below. In some instances, the compounds were not tested in all of the assays, or assay results were not valid, as indicated by NA in the tables below.

[3] = target: CYP2D6 (Homo sapiens, UniProt P10635); test: CYP2D6 inhibition (fluorescent substrate AMMC); assay type: in vitro ADME; details: read-out: Cyp IC50 2D6
Procedure, shortened: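 IC50 derives from metabolite fluorescence against compound concentration, read at excitation 409 nm and emission 460 nm for CYP1A2/2C19 or 530 nm for CYP2C9/2D6. Incubations ran at 37° C for 15 min (1A2), 45 min (2C9) or 30 min (2C19, 2D6), after serial dilution into NADPH cofactor mix and 10 min preincubation.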

T1 sequence (P04629 510-781): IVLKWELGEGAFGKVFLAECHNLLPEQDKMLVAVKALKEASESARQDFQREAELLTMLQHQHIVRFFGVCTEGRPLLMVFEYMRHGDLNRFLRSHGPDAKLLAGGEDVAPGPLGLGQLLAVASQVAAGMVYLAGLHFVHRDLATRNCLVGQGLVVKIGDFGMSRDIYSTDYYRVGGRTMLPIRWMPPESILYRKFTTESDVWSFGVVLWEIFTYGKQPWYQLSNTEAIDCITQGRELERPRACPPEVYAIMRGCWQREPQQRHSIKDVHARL
CYP2D6, sequence (P10635 whole entry): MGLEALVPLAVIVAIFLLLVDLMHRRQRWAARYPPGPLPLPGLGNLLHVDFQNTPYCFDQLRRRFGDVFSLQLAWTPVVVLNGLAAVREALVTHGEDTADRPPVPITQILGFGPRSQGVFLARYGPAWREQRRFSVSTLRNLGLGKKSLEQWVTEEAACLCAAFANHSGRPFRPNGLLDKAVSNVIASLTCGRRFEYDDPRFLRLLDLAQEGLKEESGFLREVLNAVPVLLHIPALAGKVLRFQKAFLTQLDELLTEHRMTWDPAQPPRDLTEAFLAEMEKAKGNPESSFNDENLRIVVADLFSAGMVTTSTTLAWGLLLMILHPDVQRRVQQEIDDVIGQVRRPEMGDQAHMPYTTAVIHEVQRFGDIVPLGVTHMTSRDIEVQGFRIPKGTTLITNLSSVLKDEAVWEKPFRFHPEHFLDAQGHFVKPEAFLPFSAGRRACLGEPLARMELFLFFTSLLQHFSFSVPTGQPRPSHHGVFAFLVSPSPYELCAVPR

Row | IC50 [1] | IC50 [2] | IC50 [3] | Compound
1 | < 100 nM | < 1000 nM | > 10 µM | CCOc1ccc(Nc2ccc(Cc3c[nH]c4ncnc(OC)c34)c(F)n2)cn1 [Compound P-4005, (6-Ethoxy-pyridin-3-yl)-[6-fluoro-5-(4-methoxy-7H-pyrrolo[2,3-d]pyrimidin-5-ylmethyl)-pyridin-2-yl]-amine]
2 | < 100 nM | < 100 nM | > 10 µM | CCc1ccc(Nc2ccc(Cc3c[nH]c4ncnc(C)c34)c(F)n2)cn1 [Compound P-4009, (6-Ethyl-pyridin-3-yl)-[6-fluoro-5-(4-methyl-7H-pyrrolo[2,3-d]pyrimidin-5-ylmethyl)-pyridin-2-yl]-amine]
3 | < 1000 nM | < 1000 nM | > 10 µM | COc1ncnc2[nH]cc(Cc3ccc(Nc4ccc(C)nc4)nc3F)c12 [Compound P-4010, [6-Fluoro-5-(4-methoxy-7H-pyrrolo[2,3-d]pyrimidin-5-ylmethyl)-pyridin-2-yl]-(6-methyl-pyridin-3-yl)-amine]
4 | < 100 nM | < 100 nM | > 10 µM | CCOc1ccc(Nc2ccc(Cc3c[nH]c4ncnc(C)c34)c(F)n2)cn1 [Compound P-4006, (6-Ethoxy-pyridin-3-yl)-[6-fluoro-5-(4-methyl-7H-pyrrolo[2,3-d]pyrimidin-5-ylmethyl)-pyridin-2-yl]-amine]
5 | < 1000 nM | < 1000 nM | > 10 µM | COCCOc1ncnc2[nH]cc(Cc3ccc(Nc4ccc(OC)nc4)nc3F)c12 [Compound P-4019, {6-Fluoro-5-[4-(2-methoxy-ethoxy)-7H-pyrrolo[2,3-d]pyrimidin-5-ylmethyl]-pyridin-2-yl}-(6-methoxy-pyridin-3-yl)-amine]
6 | < 1000 nM | < 1000 nM | > 10 µM | CCOc1ncnc2[nH]cc(Cc3ccc(Nc4ccc(C)nc4)nc3F)c12 [Compound P-4017, [5-(4-Ethoxy-7H-pyrrolo[2,3-d]pyrimidin-5-ylmethyl)-6-fluoro-pyridin-2-yl]-(6-methyl-pyridin-3-yl)-amine]
7 | < 100 nM | < 1000 nM | > 10 µM | CCOc1ncnc2[nH]cc(Cc3ccc(Nc4ccc(OC)nc4)nc3F)c12 [Compound P-4018, [5-(4-Ethoxy-7H-pyrrolo[2,3-d]pyrimidin-5-ylmethyl)-6-fluoro-pyridin-2-yl]-(6-methoxy-pyridin-3-yl)-amine]
8 | < 1000 nM | < 1000 nM | > 10 µM | CCOc1ncnc2[nH]cc(Cc3ccc(Nc4cnn(CC)c4)nc3F)c12 [Compound P-4012, [5-(4-Ethoxy-7H-pyrrolo[2,3-d]pyrimidin-5-ylmethyl)-6-fluoro-pyridin-2-yl]-(1-ethyl-1H-pyrazol-4-yl)-amine]
9 | < 100 nM | < 100 nM | > 10 µM | CCc1ccc(Nc2ccc(Cc3c[nH]c4ncnc(OCCOC)c34)c(F)n2)cn1 [Compound P-4016, (6-Ethyl-pyridin-3-yl)-{6-fluoro-5-[4-(2-methoxy-ethoxy)-7H-pyrrolo[2,3-d]pyrimidin-5-ylmethyl]-pyridin-2-yl}-amine]
10 | < 100 nM | < 1000 nM | > 10 µM | COc1ccc(Nc2ccc(Cc3c[nH]c4ncnc(OC)c34)c(F)n2)cn1 [Compound P-4001, [6-Fluoro-5-(4-methoxy-7H-pyrrolo[2,3-d]pyrimidin-5-ylmethyl)-pyridin-2-yl]-(6-methoxy-pyridin-3-yl)-amine]
11 | < 1000 nM | < 1000 nM | > 10 µM | COc1ncnc2[nH]cc(Cc3ccc(Nc4ccc(Cl)nc4)nc3F)c12 [Compound P-4003, (6-Chloro-pyridin-3-yl)-[6-fluoro-5-(4-methoxy-7H-pyrrolo[2,3-d]pyrimidin-5-ylmethyl)-pyridin-2-yl]-amine]
12 | < 1000 nM | < 1000 nM | < 5 µM | CCn1cc(Nc2ccc(Cc3c[nH]c4ncnc(OCCOC)c34)c(F)n2)cn1 [Compound P-4014, (1-Ethyl-1H-pyrazol-4-yl)-{6-fluoro-5-[4-(2-methoxy-ethoxy)-7H-pyrrolo[2,3-d]pyrimidin-5-ylmethyl]-pyridin-2-yl}-amine]
13 | < 10000 nM | < 10000 nM | > 10 µM | FC1(F)CCC(Nc2ncc(Cc3c[nH]c4ncc(Cl)cc34)cn2)CC1 [Compound P-3004]

From US8901118B2, “Compounds and methods for kinase modulation, and indications therefor” (Plexxikon Inc., priority 2010, dated 2014)
